Test [1] deals with Human norepinephrine transporter (NET) (Homo sapiens, UniProt P23975). The test can be described thus: Binding assay to human norepinephrine transporter (NET), [3H]-Nisoxetin. To be noted: human NET enriched membranes, 5 nM [3H]-Nisoxetin; read-out: Ki (nM) NET Hum. On the procedure: Binding Assay to Human Norepinephrine Transporter (NET).
Human norepinephrine transporter (NET) enriched membranes (5 μg) were incubated with 5 nM of radiolabeled [3H]-Nisoxetin in assay buffer containing 50 mM Tris-HCl, 120 mM NaCl, 5 mM KCl, pH 7.4.
NSB (non specific binding) was measured by adding 1 μM. After 60 min incubation at 4° C., binding reaction was terminated by filtering through Multiscreen GF/C (Millipore) presoaked in 0.5% polyethyleneimine in Vacuum Manifold Station, followed by 3 washes with ice-cold filtration buffer containing 50 mM Tris-HCl, 0.9% NaCl, pH 7.4. Filter plates were dried at 60° C. for 1 hour and 30 μl of scintillation cocktail were added to each well before radioactivity reading.

Test [2] deals with Human α2δ-1 subunit of Cav2.2 calcium channel (Homo sapiens, UniProt P54289). Briefly: Binding assay to human α2δ-1 subunit of Cav2.2 calcium channel, [3H]-Gabapentin. To be noted: human α2δ-1 enriched membranes, 15 nM [3H]-Gabapentin; read-out: Ki (nM) alpha2delta Hum. On the procedure:
Binding Assay to Human α2δ-1 Subunit of Cav2.2 Calcium Channel.
Human α2δ-1 enriched membranes (2.5 μg) were incubated with 15 nM of radiolabeled [3H]-Gabapentin in assay buffer containing Hepes-KOH 10 mM, pH 7.4.
NSB (non specific binding) was measured by adding 10 μM pregabalin. After 60 min incubation at 27° C., binding reaction was terminated by filtering through Multiscreen GF/C (Millipore) presoaked in 0.5% polyethyleneimine in Vacuum Manifold Station, followed by 3 washes with ice-cold filtration buffer containing 50 mM Tris-HCl, pH 7.4.
Filter plates were dried at 60° C. for 1 hour and 30 μl of scintillation cocktail were added to each well before radioactivity reading.
Readings were performed in a Trilux 1450 Microbeta radioactive counter (Perkin Elmer).

SMILES strings stand for the structures.

Sequence of Human α2δ-1 subunit of Cav2.2 calcium channel (P54289 25-1103): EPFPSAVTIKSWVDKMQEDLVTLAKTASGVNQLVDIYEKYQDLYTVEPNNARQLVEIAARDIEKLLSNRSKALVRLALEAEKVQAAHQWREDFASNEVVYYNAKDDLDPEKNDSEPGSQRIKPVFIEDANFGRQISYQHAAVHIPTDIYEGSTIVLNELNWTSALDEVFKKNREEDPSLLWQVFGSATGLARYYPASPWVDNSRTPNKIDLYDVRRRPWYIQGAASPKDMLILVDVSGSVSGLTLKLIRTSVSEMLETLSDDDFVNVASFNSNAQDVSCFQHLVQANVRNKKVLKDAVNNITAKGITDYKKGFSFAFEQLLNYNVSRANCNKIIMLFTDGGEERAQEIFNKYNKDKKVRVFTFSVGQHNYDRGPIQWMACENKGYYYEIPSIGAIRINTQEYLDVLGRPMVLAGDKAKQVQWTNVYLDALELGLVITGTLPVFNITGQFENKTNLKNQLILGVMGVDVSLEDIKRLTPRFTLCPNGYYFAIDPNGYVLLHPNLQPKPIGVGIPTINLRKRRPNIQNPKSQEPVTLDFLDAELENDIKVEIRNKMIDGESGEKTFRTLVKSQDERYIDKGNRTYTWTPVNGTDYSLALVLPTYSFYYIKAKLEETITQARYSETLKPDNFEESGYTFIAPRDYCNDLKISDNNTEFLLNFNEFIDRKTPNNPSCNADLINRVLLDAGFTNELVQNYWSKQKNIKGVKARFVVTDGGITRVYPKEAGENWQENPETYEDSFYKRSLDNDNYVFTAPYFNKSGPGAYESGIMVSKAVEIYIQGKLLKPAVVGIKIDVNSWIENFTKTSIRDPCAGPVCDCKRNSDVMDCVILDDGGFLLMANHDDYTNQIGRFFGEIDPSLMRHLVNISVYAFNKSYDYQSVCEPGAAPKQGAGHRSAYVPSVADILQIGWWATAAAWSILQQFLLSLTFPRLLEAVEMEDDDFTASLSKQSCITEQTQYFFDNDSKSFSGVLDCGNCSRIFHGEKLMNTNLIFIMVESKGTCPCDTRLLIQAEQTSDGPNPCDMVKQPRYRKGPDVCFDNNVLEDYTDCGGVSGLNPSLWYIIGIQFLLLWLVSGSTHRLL
Sequence of Human norepinephrine transporter (NET) (P23975 whole entry): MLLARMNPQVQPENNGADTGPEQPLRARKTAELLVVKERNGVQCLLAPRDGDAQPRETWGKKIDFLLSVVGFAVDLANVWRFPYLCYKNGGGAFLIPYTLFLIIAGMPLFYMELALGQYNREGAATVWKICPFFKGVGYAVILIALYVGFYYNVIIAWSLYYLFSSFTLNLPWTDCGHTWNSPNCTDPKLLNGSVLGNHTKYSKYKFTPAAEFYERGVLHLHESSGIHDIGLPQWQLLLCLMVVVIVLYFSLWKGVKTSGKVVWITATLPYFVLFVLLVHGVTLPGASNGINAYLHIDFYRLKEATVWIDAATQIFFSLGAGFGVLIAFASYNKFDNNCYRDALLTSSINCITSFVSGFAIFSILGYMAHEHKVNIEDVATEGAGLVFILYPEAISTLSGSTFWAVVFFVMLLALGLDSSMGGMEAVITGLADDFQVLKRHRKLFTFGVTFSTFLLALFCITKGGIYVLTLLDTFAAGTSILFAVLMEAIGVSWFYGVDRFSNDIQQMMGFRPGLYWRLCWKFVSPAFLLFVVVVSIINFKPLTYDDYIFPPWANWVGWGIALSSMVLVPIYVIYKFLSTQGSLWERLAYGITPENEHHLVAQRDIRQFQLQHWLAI

Consider `CNCCC(c1ccsc1)N1CCc2ccccc21` (racemic) [Example 78, 3-(Indolin-1-yl)-N-methyl-3-(thiophen-3-yl)propan-1-amine], for which the Ki is below 100 nM in test [1] and at least 3000 nM in test [2]. Consider `CNCC[C@H](c1ccsc1)N1CC(C)(C)c2nc(C(F)(F)F)ccc21` (racemic) [Example 79, 3-(3,3-Dimethyl-5-(trifluoromethyl)-2,3-dihydro-1H-pyrrolo[3,2-b]pyridin-1-yl)-N-methyl-3-(thiophen-3-yl)propan-1-amine], for which the Ki was above 1000 nM in test [1] and 100 to 500 nM in test [2]. As to `CNCCC(c1ccsc1)N1CC(C)(C)c2ncc(Cl)cc21` (racemic) [Example 80, 3-(6-Chloro-3,3-dimethyl-2,3-dihydro-1H-pyrrolo[3,2-b]pyridin-1-yl)-N-methyl-3-(thiophen-3-yl)propan-1-amine], the Ki was above 1000 nM in test [1] and 100 to 500 nM in test [2]. Take `CNCCC(c1cccs1)N1CC(C)(C)c2ncc(C)cc21` (racemic) [Example 81, N-methyl-3-(thiophen-2-yl)-3-(3,3,6-trimethyl-2,3-dihydro-1H-pyrrolo[3,2-b]pyridin-1-yl)propan-1-amine]: the values for the Ki in test [1] and in test [2] were above 1000 nM and below 100 nM, respectively. Turning to `CCC1(CC)CN(C(CCNC)c2ccsc2)c2cccnc21` (racemic) [Example 86, 3-(3,3-Diethyl-2,3-dihydro-1H-pyrrolo[3,2-b]pyridin-1-yl)-N-methyl-3-(thiophen-3-yl)propan-1-amine], the Ki in test [1] was above 1000 nM; in test [2], 500 to 3000 nM. For the compound `CNCC[C@@H](c1cccs1)N1c2ccccc2C[C@@H]1C` (racemic) [Example 119, (S/R)—N-methyl-3-((S/R)-2-methylindolin-1-yl)-3-(thiophen-2-yl)propan-1-amine], the values for the Ki in test [1] and in test [2] were above 1000 nM and at least 3000 nM, respectively.

In the case of `CNCCC(c1cccs1)N1CCc2ccccc21` (stereo not shown) [Example 1, 3-(Indolin-1-yl)-N-methyl-3-(thiophen-2-yl)propan-1-amine], the Ki in test [1] was below 100 nM; in test [2], 500 to 3000 nM. In the case of `CNCCC(c1cccs1)N1CCc2ccncc21` (stereo not shown) [Example 2, 3-(2,3-Dihydro-1H-pyrrolo[2,3-c]pyridin-1-yl)-N-methyl-3-(thiophen-2-yl)propan-1-amine], the values for the Ki in test [1] and in test [2] were above 1000 nM and 500 to 3000 nM, respectively. As to `CNCCC(c1cccs1)N1CCc2ncccc21` (stereo not shown) [Example 3, 3-(2,3-Dihydro-1H-pyrrolo[3,2-b]pyridin-1-yl)-N-methyl-3-(thiophen-2-yl)propan-1-amine], the Ki in test [1] was 500 to 1000 nM; in test [2] it was 500 to 3000 nM. Take `CNCCC(c1cccs1)N1CCCc2ccccc21` (stereo not shown) [Example 4, 3-(3,4-Dihydroquinolin-1(2H)-yl)-N-methyl-3-(thiophen-2-yl)propan-1-amine]: the Ki in test [1] was 100 to 500 nM; in test [2], at least 3000 nM.

As for `CNCCC(c1cccs1)N1CCCc2ncccc21` (stereo not shown) [Example 5, 3-(3,4-Dihydro-1,5-naphthyridin-1(2H)-yl)-N-methyl-3-(thiophen-2-yl)propan-1-amine], the Ki in test [1] was above 1000 nM; in test [2], 100 to 500 nM.

On to `CNCCC(c1ccc(F)s1)N1CCc2ncccc21` (stereo not shown) [Example 6, 3-(2,3-Dihydro-1H-pyrrolo[3,2-b]pyridin-1-yl)-3-(5-fluorothiophen-2-yl)-N-methylpropan-1-amine], for which the Ki in test [1] lay in the range of 500 to 1000 nM; in test [2], 500 to 3000 nM. With `CNCCC(c1ccccc1)N1CCc2ncccc21` (stereo not shown) [Example 7, 3-(2,3-Dihydro-1H-pyrrolo[3,2-b]pyridin-1-yl)-N-methyl-3-phenylpropan-1-amine], the Ki in test [1] was 500 to 1000 nM; in test [2] it was at least 3000 nM. On the same counts, the results for `CCNCCC(c1cccs1)N1CCc2ncccc21` (stereo not shown) [Example 8, 3-(2,3-Dihydro-1H-pyrrolo[3,2-b]pyridin-1-yl)-N-ethyl-3-(thiophen-2-yl)propan-1-amine] are above 1000 nM and 100 to 500 nM. On to `NCCC(c1cccs1)N1CCc2ncccc21` (stereo not shown) [Example 9, 3-(2,3-Dihydro-1H-pyrrolo[3,2-b]pyridin-1-yl)-3-(thiophen-2-yl)propan-1-amine], for which the Ki is above 1000 nM in test [1] and at least 3000 nM in test [2].

For the compound `CNCCC(c1ccsc1)N1CCc2ncccc21` (stereo not shown) [Example 10, 3-(2,3-Dihydro-1H-pyrrolo[3,2-b]pyridin-1-yl)-N-methyl-3-(thiophen-3-yl)propan-1-amine], the Ki in test [1] and in test [2] was 100 to 500 nM each time. As for `CNCCC(c1cccs1)N1CCc2nc(C)ccc21` (stereo not shown) [Example 11, N-methyl-3-(5-methyl-2,3-dihydro-1H-pyrrolo[3,2-b]pyridin-1-yl)-3-(thiophen-2-yl)propan-1-amine], the values for the Ki in test [1] and in test [2] were 500 to 1000 nM and 100 to 500 nM, respectively. Turning to `CNCCC(c1cccs1)N1CC(C)(C)c2ncccc21` (stereo not shown) [Example 12, 3-(3,3-Dimethyl-2,3-dihydro-1H-pyrrolo[3,2-b]pyridin-1-yl)-N-methyl-3-(thiophen-2-yl)propan-1-amine], the Ki in test [1] was in the range of 500 to 1000 nM; in test [2], 100 to 500 nM. Consider `CNCCC(c1ccsc1)N1CC(C)(C)c2ncccc21` (stereo not shown) [Example 13, 3-(3,3-Dimethyl-2,3-dihydro-1H-pyrrolo[3,2-b]pyridin-1-yl)-N-methyl-3-(thiophen-3-yl)propan-1-amine], for which the Ki lay within 500 to 1000 nM in test [1] and 500 to 3000 nM in test [2].

On to `CNCCC(c1ccsc1)N1CCc2ncc(C)cc21` (stereo not shown) [Example 14, N-methyl-3-(6-methyl-2,3-dihydro-1H-pyrrolo[3,2-b]pyridin-1-yl)-3-(thiophen-3-yl)propan-1-amine], for which the Ki was 500 to 1000 nM in test [1] and 100 to 500 nM in test [2]. With `CN(C)CCC(c1cccs1)N1CCc2ncccc21` (stereo not shown) [Example 15, 3-(2,3-Dihydro-1H-pyrrolo[3,2-b]pyridin-1-yl)-N,N-dimethyl-3-(thiophen-2-yl)propan-1-amine], the Ki was above 1000 nM in test [1] and at least 3000 nM in test [2]. For the compound `CNCC[C@@H](c1cccs1)N1CCc2ncccc21` [Example 16, (S)-3-(2,3-Dihydro-1H-pyrrolo[3,2-b]pyridin-1-yl)-N-methyl-3-(thiophen-2-yl)propan-1-amine], the Ki in test [1] and in test [2] was 100 to 500 nM each time.

`CNCC[C@H](c1cccs1)N1CCc2ncccc21` [Example 17, (R)-3-(2,3-dihydro-1H-pyrrolo[3,2-b]pyridin-1-yl)-N-methyl-3-(thiophen-2-yl)propan-1-amine]: the Ki in test [1] is 100 to 500 nM; in test [2], 500 to 3000 nM. On to `CCNCCC(c1cccs1)N1CC(C)(C)c2ncc(C#N)cc21` (stereo not shown) [Example 101, 1-(3-(Ethylamino)-1-(thiophen-2-yl)propyl)-3,3-dimethyl-2,3-dihydro-1H-pyrrolo[3,2-b]pyridine-6-carbonitrile], for which, in test [2], the Ki was below 100 nM. `CNCC[C@@H](c1cccs1)N1CC(C)(C)c2ncc(C#N)cc21` [Example 115, (S)-3,3-Dimethyl-1-(3-(methylamino)-1-(thiophen-2-yl)propyl)-2,3-dihydro-1H-pyrrolo[3,2-b]pyridine-6-carbonitrile]: in test [2], the Ki is below 100 nM. In the case of `CNCC[C@H](c1cccs1)N1CC(C)(C)c2ncc(C#N)cc21` [Example 116, (R)-3,3-dimethyl-1-(3-(methylamino)-1-(thiophen-2-yl)propyl)-2,3-dihydro-1H-pyrrolo[3,2-b]pyridine-6-carbonitrile], the Ki in test [2] lay within 500 to 3000 nM.

The values are drawn from patent publication US20200207759A1, “NEW PROPANAMINE DERIVATIVES FOR TREATING PAIN AND PAIN RELATED CONDITIONS” (ESTEVE PHARMACEUTICALS, S.A., priority 2017, published 2020).
